We go through one molecule from patent publication US6331642A, “Vitamin D3 analogs” (Hoffmann-La Roche Inc., priority 2000, dated 2001).

For one series, the system named is sebaceous glands. The series can be described thus: Sebaceous gland area, hamster ear (image analysis). To be noted: 4 weeks. The format is in vivo, Golden Syrian hamsters. How it is done:
(§1) Two hundred μl of (1,25)OH2 -16-ene-5,6-trans D3 was dissolved in propylene glycol, administered daily (5 days per week) by gavage to […] Golden Syrian hamsters. The animals were sacrificed at 4 weeks and the ears were processed for histological evaluation. The area of the sebaceous glands was measured on histologically prepared cross sections of the ear by image analysis.

The next series concerns ear total lipid fraction. The series can be described thus: Total lipid fraction of hamster ear. Format: in vivo, Golden Syrian hamsters. Particulars: 4 weeks. How it is done: as §1
Also examined was the total lipid fraction from one of the ears (extraction by organic solvent followed by weighing the remaining lipid material).

Series [1] is described as follows: Serum calcium levels, adult female rats, day 7 of oral dosing. The format is in vivo. Particulars: for Serum Calcium Mean: vehicle 9.65. How it is done:
Three month old adult female rats were used. […] On day 7 of dosing, animals were bled and serum calcium levels were determined. Compound was dissolved in 200 proof ethanol to produce a concentration of 100 μg/ml. […] Dose volume was calculated using the dosing group average body weight. Serial dilutions of vehicle dissolved compound were done to appropriate dosage concentrations. Blood (1.5 ml) was collected from each animal by orbital puncture under ether anesthesia on Day 7 of dosing. Blood was collected into serum separator tubes, centrifuged at 2000 rpm for 15 minutes and then serum aliquoted for calcium determinations. Serum calcium was determined by colorimetric assay.

Series [2] deals with LNCaP cells, MCF-7 cells and HL-60 cells. Briefly: Clonogenic assay, three cell lines together. Format: cell-based. How it is done: Cell lines. The breast cancer cell line (MCF-7), prostate cancer cell line (LNCaP) and myeloid leukemia cell line (HL-60) were maintained as follows: MCF-7 cells were maintained in Dulbecco's Modified Eagle Media (DMEM) with 10% fetal calf serum (FCS); LNCaP and HL-60 were cultured in RPMI1640 with 10% FCS; All three cell lines were maintained in a 37° C. incubator containing 5% CO2.
Vitamin D3 Compounds. The vitamin D3 compounds were dissolved in absolute ethanol at 10^-3 M as stock solution, which were stored at -20° C. and protected from light. For in vitro use, compounds were diluted in DMEM or RPMI medium. For in vivo use, compounds were diluted with phosphate buffered saline (PBS). […]. Washed single-cell suspensions of cells were enumerated and plated into 24-well flat-bottomed plates with a total of […] cells/well in a volume of 400 μl/well. The feeder layer was prepared with agar that had been equilibrated at 42° C. Prior to this step, compounds were pipetted into wells. After incubation, the colonies were counted. All experiments were done at least three times using triplicate plates per experimental point.
Effect of Vitamin D3 analogs on Clonogenic Assay. […]

Take `C=C1/C(=C/C=C2\CCC[C@]3(C)C([C@H](C)CCCC(C)(C)O)=CC[C@@H]23)C[C@@H](O)C[C@@H]1O` [1,25(OH)2-16-ene-5,6-trans-D3, 1,25-Dihydroxy-16-ene-5,6-trans-cholecalciferol]: the “sebaceous gland area, % Change from Control” value with sebaceous glands (0.01 μg/day gavage) is -5%; with sebaceous glands (0.1 μg/day gavage), -23%; with sebaceous glands (1 μg/day gavage) it was -50%; in the series on sebaceous glands (10 μg/day gavage) it was -50%. Also, the “total lipid fraction, % Change from Control” value in the series with ear total lipid fraction (0.01 μg/day gavage) is -26%; with ear total lipid fraction (0.1 μg/day gavage), -25%; with ear total lipid fraction (1 μg/day gavage), -37%; in the series with ear total lipid fraction (10 μg/day gavage) it was -56%. In addition, the “Serum Calcium Mean” value in series [1] (0.5 μg/kg/day oral) came out at 10.64 mg/dL; in series [1] (1 μg/kg/day oral), 10.06 mg/dL; in series [1] (1.5 μg/kg/day oral) it was 9.92 mg/dL; in series [1] (2 μg/kg/day oral) it was 9.77 mg/dL. Also, in series [1] (up to 2 μg/kg/day oral), the serum calcium levels entry was “within the normal range”. Further, the “inhibition of clonal proliferation” value in series [2] (10^-11 to 10^-7 M) is on record as “effective in inhibition of clonal proliferation of the three cell lines in a dose-dependent manner”. Moreover, the “potency relative to 1,25(OH)2 D3 (fold more potent)” value in series [2] (vs 1,25(OH)2 D3, about) is reported as 10-100 fold.
